# Test results reported in patent US7541367B2, “3-benzoimidazolyl-pyrazolopyridines useful in treating kinase disorders” (Janssen Pharmaceutica, N.V., priority 2005, dated 2009).
# Experiments:
# [1] = tested on: HCT-116 colon carcinoma; assay: Cell Proliferation Inhibition Assay (14C-thymidine incorporation), HCT-116; format: cell-based; conditions: Homo sapiens;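 note: proliferation measured as methyl 14C-thymidine uptake into new DNA, counted in 96-well scintillating microplates, compared with DMSO-only control wells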
# [2] = target: T1, CDK1 (Homo sapiens, UniProt P06493); assay: CDK-1 kinase screening assay (33P-ATP FlashPlate); format: biochemical; conditions: human CDK1 with cyclin B; 10 μM ATP; 1 hr at 30° C
# T1 construct: purchased New England Biolabs, Beverly, Mass; 6020; host or cells: insect cells
# Procedure: A kinase reaction mixture was prepared containing 50 mM Tris-HCl pH=8, 10 mM MgCl2, 0.1 mM […], 1 mM DTT, 10 μM ATP, 0.025 μM biotinylated histone-H1 peptide substrate and 0.2 μCuries per well ^33P-γ-ATP (2000-3000 Ci/mmol). 70 μL of the kinase reaction mixture was dispensed into the well of a streptavidin coated FlashPlate™ (Cat. # SMP103, NEN, Boston, Mass.).
# Test compound stock in 100% DMSO (1 μL) was added to the wells resulting in a final concentration of 1% DMSO in the reaction with a 100 μL final reaction volume. Each enzyme was diluted in 50 mM Tris-HCl pH=8.0, 0.11% BSA and 30 μL was added to each well to initiate the reaction. The reaction was incubated for one hour at 30° C. At the end of the 1 hr incubation, the reaction was terminated by aspirating the mixture from the plate and washing the wells twice with PBS containing 100 mM EDTA. The biotinylated peptide substrate became immobilized on the Flashplate™ and the incorporation of ^33P-γ-ATP was measured by reading the plate on a scintillation counter. Inhibition of the enzymatic activity was measured by observing a reduced amount of ^33P-γ-ATP incorporated into the immobilized peptide.
# The CDK1 enzyme was isolated from insect cells expressing both the human CDK1 catalytic subunit (Accession number NM_001786) and its positive regulatory subunit cyclin B (New England Biolabs, Beverly, Mass.; Cat. # 6020). The assay used 30 ng of the N-terminal biotinylated peptide biotin-[…]-amide (Cyclin dependent kinase 1) per well.
# A maximum and minimum signal for the assay was determined on each plate. The percent inhibition of a test compound was calculated according to the formula: […]
# For a series of test concentrations, the IC50 was derived by graphing percent inhibition against the log of the concentrations tested for a given compound with results shown in Table 1.
# For compounds with multiple values, each value represents a separate assay result.
# [3] = target: T2, HER2 (Homo sapiens, UniProt P04626); assay: HER2 kinase screening assay (33P-ATP FlashPlate); format: biochemical; conditions: GST-HIS6 HER-2 aa 679 to 1255; 10 μM ATP; 1 hr at 30° C;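 note: Biotin-poly(GT) 4:1 peptide captured on streptavidin FlashPlate, 33P transfer from γ-ATP read by scintillation counting, lower incorporation means inhibition, 1% DMSO final, 100 µL reaction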
# T2 construct: GST (Glutathione-S-Transferase) (N); HIS6 (N); thrombin cleavage site (N); purchased Proqinase, Freiburg, Germany
# [4] = tested on: HeLa cervical adenocarcinoma; assay: Cell Proliferation Inhibition Assay (14C-thymidine incorporation), HeLa; format: cell-based; conditions: Homo sapiens, HeLa cells;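 note: test compound in DMSO added to cells seeded in scintillating 96-well plates, DMSO-only wells as control, uptake of methyl 14C-thymidine into new DNA counted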
# [5] = target: T3, RET (Homo sapiens, UniProt P07949); assay: RET kinase screening assay (33P-ATP FlashPlate); format: biochemical; conditions: human RET kinase domain; 10 μM ATP; 1 hr at 30° C;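 note: biotinylated peptide substrate captured on streptavidin FlashPlate, 33P phosphate transfer read by scintillation counting, 1% DMSO, lower incorporation means inhibition, percent relative to per-plate maximum and minimum signals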
# T3 construct: polyhistidine (N)
# T3 sequence (P07949 658-1114 limits assumed): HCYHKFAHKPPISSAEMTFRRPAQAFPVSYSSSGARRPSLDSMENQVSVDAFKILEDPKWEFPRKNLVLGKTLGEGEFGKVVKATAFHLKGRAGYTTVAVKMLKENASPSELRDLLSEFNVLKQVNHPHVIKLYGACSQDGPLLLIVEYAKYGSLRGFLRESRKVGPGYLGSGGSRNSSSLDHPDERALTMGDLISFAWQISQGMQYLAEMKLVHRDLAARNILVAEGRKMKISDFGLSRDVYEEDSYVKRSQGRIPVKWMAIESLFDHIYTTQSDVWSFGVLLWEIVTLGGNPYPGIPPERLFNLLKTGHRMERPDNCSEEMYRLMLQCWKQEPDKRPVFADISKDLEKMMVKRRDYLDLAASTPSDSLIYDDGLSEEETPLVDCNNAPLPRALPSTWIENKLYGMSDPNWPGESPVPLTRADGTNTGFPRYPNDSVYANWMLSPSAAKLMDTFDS
# [6] = target: T4, VEGF-R2 (Rattus norvegicus, UniProt O08775); assay: VEGF-R2 kinase screening assay (33P-ATP FlashPlate); format: biochemical; conditions: rat VEGF-R2 kinase domain; 10 μM ATP; 1 hr at 30° C;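 note: Read-out is ³³P incorporation from ³³P-γ-ATP into biotinylated peptide substrate captured on streptavidin FlashPlate, counted by scintillation, 1% DMSO final, inhibition scaled between per-plate maximum and minimum signals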
# T4 construct: polyhistidine (N)
# [7] = target: T5, Aurora-A (Mus musculus, UniProt P97477); assay: Aurora-A kinase screening assay (33P-ATP FlashPlate); format: biochemical; conditions: 10 μM ATP, 1 hr at 30° C;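 note: His-tagged mouse Aurora-A phosphorylating a biotinylated peptide captured on streptavidin plates, read as 33P uptake by scintillation counting, 1% DMSO, inhibition scaled between per-plate maximum and minimum signals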
# T5 construct: polyhistidine (N)
# T5 sequence (P97477 1-395): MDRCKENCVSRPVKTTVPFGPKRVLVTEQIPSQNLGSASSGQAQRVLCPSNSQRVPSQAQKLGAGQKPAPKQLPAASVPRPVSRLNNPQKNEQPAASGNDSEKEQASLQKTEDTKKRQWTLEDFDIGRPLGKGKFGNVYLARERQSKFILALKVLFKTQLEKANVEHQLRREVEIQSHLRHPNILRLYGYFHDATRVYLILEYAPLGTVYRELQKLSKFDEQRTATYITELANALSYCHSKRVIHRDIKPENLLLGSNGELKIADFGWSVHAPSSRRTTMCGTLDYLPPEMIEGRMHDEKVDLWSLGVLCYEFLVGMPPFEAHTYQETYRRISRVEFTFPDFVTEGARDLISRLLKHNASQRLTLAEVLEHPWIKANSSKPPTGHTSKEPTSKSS
# [8] = tested on: A375 malignant melanoma; assay: Cell Proliferation Inhibition Assay (14C-thymidine incorporation), A375; format: cell-based; conditions: Homo sapiens, A-375, A375 cells;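 note: proliferation measured by radiolabelled thymidine uptake into new DNA, counted in scintillating 96-well plates, compound-treated wells compared with DMSO-only control wells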
# T4 sequence (O08775 786-1343): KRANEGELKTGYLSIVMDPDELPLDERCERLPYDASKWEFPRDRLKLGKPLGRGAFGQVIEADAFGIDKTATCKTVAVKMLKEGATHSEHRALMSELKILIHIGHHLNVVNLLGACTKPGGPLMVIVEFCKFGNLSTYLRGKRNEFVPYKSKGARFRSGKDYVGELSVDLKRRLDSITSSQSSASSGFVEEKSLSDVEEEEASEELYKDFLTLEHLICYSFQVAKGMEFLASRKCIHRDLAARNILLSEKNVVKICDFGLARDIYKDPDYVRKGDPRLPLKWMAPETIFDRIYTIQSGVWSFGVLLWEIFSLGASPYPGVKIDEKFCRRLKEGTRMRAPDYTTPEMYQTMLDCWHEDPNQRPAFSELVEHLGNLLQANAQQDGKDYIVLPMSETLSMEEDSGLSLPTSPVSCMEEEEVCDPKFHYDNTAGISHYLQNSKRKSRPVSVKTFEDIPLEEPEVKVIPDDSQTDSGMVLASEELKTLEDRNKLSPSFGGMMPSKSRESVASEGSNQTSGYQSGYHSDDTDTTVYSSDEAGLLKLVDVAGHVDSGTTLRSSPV
# T1 sequence (P06493 whole entry): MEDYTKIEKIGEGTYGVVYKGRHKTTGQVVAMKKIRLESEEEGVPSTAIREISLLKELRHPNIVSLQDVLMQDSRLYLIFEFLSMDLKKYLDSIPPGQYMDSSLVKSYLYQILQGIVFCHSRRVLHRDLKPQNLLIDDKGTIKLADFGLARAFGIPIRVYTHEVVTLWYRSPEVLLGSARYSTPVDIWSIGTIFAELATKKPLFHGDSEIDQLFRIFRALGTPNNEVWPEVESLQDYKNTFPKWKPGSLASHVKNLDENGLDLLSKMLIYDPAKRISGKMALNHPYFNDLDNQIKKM
# T1 sequence (P14635 whole entry partner): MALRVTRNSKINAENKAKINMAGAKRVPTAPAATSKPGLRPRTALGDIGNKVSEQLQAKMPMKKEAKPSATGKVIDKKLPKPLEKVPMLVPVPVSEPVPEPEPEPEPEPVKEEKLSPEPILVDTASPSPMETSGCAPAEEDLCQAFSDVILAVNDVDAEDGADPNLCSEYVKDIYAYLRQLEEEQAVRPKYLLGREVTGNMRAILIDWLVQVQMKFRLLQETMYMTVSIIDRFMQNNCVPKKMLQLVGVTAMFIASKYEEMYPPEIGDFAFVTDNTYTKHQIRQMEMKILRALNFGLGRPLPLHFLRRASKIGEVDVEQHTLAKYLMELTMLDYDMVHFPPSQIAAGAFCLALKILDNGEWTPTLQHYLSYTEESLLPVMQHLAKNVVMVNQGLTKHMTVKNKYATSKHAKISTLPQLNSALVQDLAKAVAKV
# T2 sequence (P04626 679-1255): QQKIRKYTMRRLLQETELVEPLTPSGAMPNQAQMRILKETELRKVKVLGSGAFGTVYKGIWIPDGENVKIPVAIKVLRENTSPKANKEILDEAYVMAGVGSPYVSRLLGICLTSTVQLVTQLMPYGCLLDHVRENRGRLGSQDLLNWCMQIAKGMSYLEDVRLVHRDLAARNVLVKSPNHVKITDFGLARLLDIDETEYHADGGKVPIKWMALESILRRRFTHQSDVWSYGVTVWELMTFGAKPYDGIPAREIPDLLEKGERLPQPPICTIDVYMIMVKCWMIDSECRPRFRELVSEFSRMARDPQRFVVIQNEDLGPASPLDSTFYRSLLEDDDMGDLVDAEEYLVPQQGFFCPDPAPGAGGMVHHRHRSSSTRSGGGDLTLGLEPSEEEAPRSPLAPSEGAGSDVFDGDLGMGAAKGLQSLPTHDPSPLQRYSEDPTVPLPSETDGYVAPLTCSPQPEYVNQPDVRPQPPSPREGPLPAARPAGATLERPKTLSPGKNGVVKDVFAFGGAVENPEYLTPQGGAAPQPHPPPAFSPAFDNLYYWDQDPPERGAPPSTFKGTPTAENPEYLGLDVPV
Structure (SMILES),"IC50 ([1]; HCT-116, HCT-116 cells) [nM]",IC50 [2] [nM],IC50 [3] [nM],IC50 ([4]; HeLa) [nM],IC50 [5] [nM],IC50 [6] [nM],IC50 [7] [nM],IC50 [8] [nM],IC50 ([1]; HCT-116 cells) [nM],IC50 [4] [nM]
"CCN(CC)Cc1cccc2[nH]c(-c3n[nH]c4ncc(Br)cc34)nc12 [Cpd 6, [2-(5-bromo-1H-pyrazolo[3,4-b]pyridin-3-yl)-1H-benzoimidazol-4-ylmethyl]-diethyl-amine]",259,77.6,89.4,354,> 10000,952,975,255,–,–
"c1ccc2c(-c3cnc4[nH]nc(-c5nc6c(CN7CCCCC7)cccc6[nH]5)c4c3)cncc2c1 [Cpd 8, 4-[3-(4-piperidin-1-ylmethyl-1H-benzoimidazol-2-yl)-1H-pyrazolo[3,4-b]pyridin-5-yl]-isoquinoline]",28.5,8.11,–,48.6,> 10000,403,1370,29.2,–,–
"c1ccc2c(-c3cnc4[nH]nc(-c5nc6c(CN7CCOCC7)cccc6[nH]5)c4c3)cncc2c1 [Cpd 9, 4-[3-(4-morpholin-4-ylmethyl-1H-benzoimidazol-2-yl)-1H-pyrazolo[3,4-b]pyridin-5-yl]-isoquinoline]",64.7,8.45,–,92.6,~10000,210,~10000,84,–,–
"CCN1CCN(Cc2cccc3[nH]c(-c4n[nH]c5ncc(-c6cncc7ccccc67)cc45)nc23)CC1 [Cpd 10, 4-{3-[4-(4-ethyl-piperazin-1-ylmethyl)-1H-benzoimidazol-2-yl]-1H-pyrazolo[3,4-b]pyridin-5-yl}-isoquinoline]",191,15.9,–,127,> 10000,163,6740,118,–,–
"c1ccc2c(-c3cnc4[nH]nc(-c5nc6c(COCCN7CCOCC7)cccc6[nH]5)c4c3)cncc2c1 [Cpd 15, 4-{3-[4-(2-morpholin-4-yl-ethoxymethyl)-1H-benzoimidazol-2-yl]-1H-pyrazolo[3,4-b]pyridin-5-yl}-isoquinoline]",5820,33,~100000,8520,929,~1000,2270,7610,–,–
"CN1CCN(c2ccc3[nH]c(-c4n[nH]c5ncc(-c6cccnc6)cc45)nc3c2)CC1 [Cpd 89, 3-[5-(4-methyl-piperazin-1-yl)-1H-benzoimidazol-2-yl]-5-pyridin-3-yl-1H-pyrazolo[3,4-b]pyridine]",423,–,31800,617,193,47.5,225,544,–,–
"CCCCNCc1cncc(-c2cnc3[nH]nc(-c4nc5cc(OC)ccc5[nH]4)c3c2)c1 [Cpd 104, butyl-{5-[3-(5-methoxy-1H-benzoimidazol-2-yl)-1H-pyrazolo[3,4-b]pyridin-5-yl]-pyridin-3-ylmethyl}-amine]",–,0.8,1880,–,–,17.9,245,39.5,52,85

# Further lines, with some results ahead:
"IC50 ([1]; HCT-116, HCT-116 cells) [nM]",IC50 [2] [nM],IC50 [3] [nM],IC50 ([4]; HeLa) [nM],IC50 [5] [nM],IC50 [6] [nM],IC50 [7] [nM],IC50 [8] [nM],Structure (SMILES),IC50 ([1]; HCT-116 cells) [nM],IC50 [4] [nM]
892,41.2,245,1760,> 100000,> 100000,> 10000,–,"OCc1cccc2[nH]c(-c3n[nH]c4ncc(-c5cncc6ccccc56)cc34)nc12 [Cpd 3, [2-(5-isoquinolin-4-yl-1H-pyrazolo[3,4-b]pyridin-3-yl)-1H-benzoimidazol-4-yl]-methanol]",–,–
10.1,5.61,85.1,14.8,> 10000,461,324,10.1,"COCc1cccc2[nH]c(-c3n[nH]c4ncc(-c5cncc6ccccc56)cc34)nc12 [Cpd 4, 4-[3-(4-methoxymethyl-1H-benzoimidazol-2-yl)-1H-pyrazolo[3,4-b]pyridin-5-yl]-isoquinoline]",–,–
64.8,4.92,–,113,> 10000,1570,1720,82.5,"c1ccc2c(-c3cnc4[nH]nc(-c5nc6c(CN7CCCC7)cccc6[nH]5)c4c3)cncc2c1 [Cpd 7, 4-[3-(4-pyrrolidin-1-ylmethyl-1H-benzoimidazol-2-yl)-1H-pyrazolo[3,4-b]pyridin-5-yl]-isoquinoline]",–,–
1890,41.5,–,3200,~100000,~10000,~10000,4090,"c1ccc2c(-c3cnc4[nH]nc(-c5nc6c(Cn7ccnc7)cccc6[nH]5)c4c3)cncc2c1 [Cpd 12, 4-[3-(4-imidazol-1-ylmethyl-1H-benzoimidazol-2-yl)-1H-pyrazolo[3,4-b]pyridin-5-yl]-isoquinoline]",–,–
109,12.8,> 100000,134,> 100000,~1000,3620,140,"CC(C)NCc1cccc2[nH]c(-c3n[nH]c4ncc(-c5cncc6ccccc56)cc34)nc12 [Cpd 13, isopropyl-[2-(5-isoquinolin-4-yl-1H-pyrazolo[3,4-b]pyridin-3-yl)-1H-benzoimidazol-4-ylmethyl]-amine]",–,–
312,72.1,> 100000,1000,~100000,4570,> 1000,649,"COCCOCc1cccc2[nH]c(-c3n[nH]c4ncc(-c5cncc6ccccc56)cc34)nc12 [Cpd 14, 4-{3-[4-(2-methoxy-ethoxymethyl)-1H-benzoimidazol-2-yl]-1H-pyrazolo[3,4-b]pyridin-5-yl}-isoquinoline]",–,–
–,1360,–,1460,~10000,157,> 10000,10.7,"COCc1cccc2[nH]c(-c3n[nH]c4ncc(-c5cnc6ccccc6c5)cc34)nc12 [Cpd 34, 3-[3-(4-methoxymethyl-1H-benzoimidazol-2-yl)-1H-pyrazolo[3,4-b]pyridin-5-yl]-quinoline]",–,–
–,~10000,> 100000,10500,> 100000,~100000,~100000,7380,"COC(=O)c1cccc2[nH]c(-c3n[nH]c4ncc(-c5cncc6ccccc56)cc34)nc12 [Cpd 108, 2-(5-isoquinolin-4-yl-1H-pyrazolo[3,4-b]pyridin-3-yl)-1H-benzoimidazole-4-carboxylic acid methyl ester]",–,–
